Results on one compound are retold here after paper PMC5833389 (Oncogenesis, 2018).

The subject of assay [1] is PC-3 cells. The assay is described as follows: Proliferation assay, adherent monolayer, alamarBlue. It counts as cell-based, human. As to conditions: adherent monolayers. On the procedure: PC-3 cells were incubated with compounds for 5 days at 37 °C/5% CO2, stained with alamarBlue® and fluorescence was determined (544 nm/590 nm). Data were analyzed as described above.
(In general: Resazurin is reduced to fluorescent resorufin, in cell work by metabolically active cells.)

Assay [2] relates to PC-3 cells. The assay is described as follows: Clonogenic assay in soft agar (anchorage-independent growth). It counts as cell-based, human. As to conditions: alamarBlue, read-out: Colony formation EC50 PC-3. The procedure: Clonogenic assays were performed using agarose-containing media. Cells were incubated at 37 °C and 5% CO2 for 14 days. alamarBlue® was used to detect colonies of viable cells (530 nm/590 nm). Data analysis was performed as described above.

One may read the EC50 as the concentration giving half of the maximal effect. As to `CN(c1ncccc1CNc1nc(Nc2ccc3c(c2)CC(=O)N3)ncc1C(F)(F)F)S(C)(=O)=O` [PF-562,271, reference compound], the EC50 is 1650 nM with PC-3 cells [1] and 42 nM with PC-3 cells [2].
